Assay results as given in ChEMBL document CHEMBL5726955, “Substituted boronic acids and boronate esters as immunoproteasome inhibitors” (2019).

Molecular target: T1, Proteasome Macropain subunit MB1 (Homo sapiens, UniProt P28074)
T1 sequence (P28074 whole entry): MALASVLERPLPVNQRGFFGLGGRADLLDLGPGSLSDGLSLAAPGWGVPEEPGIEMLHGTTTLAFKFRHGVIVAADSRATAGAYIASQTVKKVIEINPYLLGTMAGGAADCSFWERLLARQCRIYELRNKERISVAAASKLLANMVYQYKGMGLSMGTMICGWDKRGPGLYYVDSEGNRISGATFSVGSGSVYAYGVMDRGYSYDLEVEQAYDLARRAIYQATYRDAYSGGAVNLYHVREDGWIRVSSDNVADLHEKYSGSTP
Assay: Determination of Beta5 Activity: Measurement of Beta5 inhibition is performed in 384 well format based on fluorescence intensity assay.Purified human constitutive proteasome (1.25 nM) and serial diluted compounds in DMSO (range of concentrations from 30 μM to […]) or controls are incubated for 20 minutes at 25° C. in assay buffer containing 50 mM Tris pH 7.4, 0.03% SDS, 1 mM EDTA and 1% DMSO. The reaction is initiated by the addition of the fluorogenic peptide substrate, Suc-LLVY-AMC (Bachem 1-1395), at a concentration of 40 μM. After 60 minutes of incubation at 37° C., fluorescence intensity is measured at λex=350 nm and λem=450 nm with a fluorescence reader (Perkin Elmer Envision reader or equivalent).

Compound	IC50 [nM]
Cc1ccc(OCCC(=O)N[C@@H](Cc2coc3ccccc23)B(O)O)cc1	< 50
CCO[C@@H](C(=O)N[C@@H](Cc1coc2ccccc12)B(O)O)c1ccccc1	> 5000
